Assay results reported in patent US9120775B2, “Viral polymerase inhibitors” (Biota Scientific Management Pty Ltd, priority 2012, dated 2015).
In brackets after ≈: the same amount, converted by molar mass. Like-named read-outs stand apart in the source and are kept apart here.

How the values were obtained:
[1] = Aqueous solubility (laser nephelometry); format: physicochemical; details: aqueous assay buffer pH 6.5 with 1% DMSO, aqueous buffer, kinetic from dmso stock, pH 6.5, 1% DMSO, 30 minute incubation at 25° C.
Experimental: Test compounds prepared in DMSO were screened in duplicate over a range of concentrations (1.6-100 ug/mL) in different aqueous media (for example a pH6.5 buffers which are relevant to the stomach and upper regions of the small intestine and therefore important when predicting the amount of drug likely to be in solution following oral administration). Test compounds were serially diluted in 100% DMSO ranging from 10-0.16 mg/mL. These titrated DMSO stocks were then further diluted 1:100 with assay buffer and added to test plates (UV Star Griener 384 well plates), maintaining the DMSO concentration at 1%.

[2] = molecular target: T1, 1b (BK) NS5BΔ21 (Hepatitis C virus genotype 1b, UniProt P26663); assay: HCV polymerase inhibition assay; format: biochemical
T1 construct: 100 nM 1b (BK) NS5BΔ21
Experimental: HCV polymerase reactions were carried out using a modified method of Howe et al., Antimicrobial Agents and Chemotherapy 2004 48(12): 4813-4821. Reactions contained a final concentration of, 0.5% DMSO, 100 nM 1b (BK) NS5BΔ21, 20 mM Tris-HCl pH 7.5, 5 mM MgCl2, 5 mM MnCl2, 3 mM DTT, 0.05% BSA, 0.2 U/μL RNasin, 10 μg/mL Poly(rC) template, GTP (at Km) and 0.05 μCi/μL ^33P-GTP in a total reaction volume of 50 μL. Compounds were tested in a three fold dilution series, for example starting from 50 μM. Reactions were initiated with the addition of GTP and terminated after […] with 50 μL ice cold 0.2 M EDTA. Terminated reactions were transferred to DEAE 96-well filter plates, unincorporated nucleotides washed from the filters and 50 μL scintillation fluid added prior to reading on a scintillation counter. The compound concentration that reduced ^33P-GTP incorporation by 50% (IC50) was calculated using non-linear regression.

[3] = system: genotype 1b (Con 1) subgenomic replicon cell line; assay: HCV replicon assay, genotype 1b, Renilla luciferase reporter; format: cell-based; details: Hepatitis C virus; 72 hours incubation, Renilla luciferase activity
Experimental: A genotype 1b (Con 1) subgenomic replicon cell line based on Blight et al., Science 2000 290: 1972-1974, modified to express a Renilla luciferase reporter gene was used to assess antiviral activity of test compounds. Cell cultures were maintained in a sub-confluent state in DMEM with glutamine, 10% heat-inactivated foetal bovine serum (FBS) and G418 (Geneticin®).
For assay, cells were seeded at a density of 7000 cells/well into 96 well tissue culture trays in culture media lacking G418. Compounds were tested in a three fold dilution series, for example starting from 50 uM. After 72 hours incubation at 37° C. and 5% CO2, Renilla luciferase activity was quantified via the Promega Renilla Luciferase or Renilla-Glo™ Luciferase Assay Systems (Promega corporation. The same method was employed for replicon assays using subgenomic genotype 1a (H77) and 2a (JFH-1) replicon cell lines with a seeding cell density of 5000 cells/well for the 2a cell lines.
The compound concentration that reduced luciferase activity by 50% (EC50) was calculated using non-linear regression.

[4] = read-out: solubility ranges at pH 6.5

T1 sequence (P26663 2420-2989, stated change not applied): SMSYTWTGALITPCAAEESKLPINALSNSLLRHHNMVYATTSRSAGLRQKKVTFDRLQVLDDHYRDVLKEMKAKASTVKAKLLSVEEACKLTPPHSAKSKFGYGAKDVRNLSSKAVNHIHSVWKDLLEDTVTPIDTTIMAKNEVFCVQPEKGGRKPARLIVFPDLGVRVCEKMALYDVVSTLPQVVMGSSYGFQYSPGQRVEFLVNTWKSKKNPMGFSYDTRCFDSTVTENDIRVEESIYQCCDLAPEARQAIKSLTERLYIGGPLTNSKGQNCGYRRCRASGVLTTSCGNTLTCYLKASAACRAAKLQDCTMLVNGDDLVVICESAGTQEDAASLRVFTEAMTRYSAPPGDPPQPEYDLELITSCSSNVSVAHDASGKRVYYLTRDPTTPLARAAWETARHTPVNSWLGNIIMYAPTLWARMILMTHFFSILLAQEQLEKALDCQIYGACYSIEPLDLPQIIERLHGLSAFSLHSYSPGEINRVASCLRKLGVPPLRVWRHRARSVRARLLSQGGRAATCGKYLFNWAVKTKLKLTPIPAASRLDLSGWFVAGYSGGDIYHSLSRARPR

| solubility at 30 min ([1]; read-out: Solubility at pH 6.5) [µg/mL] | solubility at 30 min [1, 4] [µg/mL] | Structure (SMILES) | IC50 [2] [nM] | EC50 [3] [nM] |
| --- | --- | --- | --- | --- |
| 1.6 to 3.1 (≈ 3.29 to 6.37 µM) | – | CNC(=O)c1c2cc(C3CC3)c(N(CC3CCC3)S(C)(=O)=O)cc2nn1-c1ccc(Cl)cc1 [A, reference compound] | – | – |
| 3.1 to 6.3 (≈ 6.55 to 13.3 µM) | – | CNC(=O)c1c2cc(C3CC3)c(N(CC3CC3)S(C)(=O)=O)cc2nn1-c1ccc(Cl)cc1 [B, reference compound] | – | – |
| < 1.6 | – | CNC(=O)c1c2cc(C3CC3)c(N(CC3CCOC3)S(C)(=O)=O)cc2nn1-c1ccc(Cl)cc1 (centres unmarked) [C, reference compound] | – | – |
| – | – | CNC(=O)c1c2cc(C3CC3)c(N(CCCC3CCO3)S(C)(=O)=O)cc2nn1-c1ccc(Cl)cc1 (centres unmarked) [Compound 4, 2-(4-chlorophenyl)-5-cyclopropyl-N-methyl-6-{(methylsulfonyl)[3-(oxetan-2-yl)propyl]amino}-2H-indazole-3-carboxamide] | < 100 | < 100 |
| – | – | CNC(=O)c1c2cc(C3CC3)c(N(CCC3COC3)S(C)(=O)=O)cc2nn1-c1ccc(C)cn1 [Compound 5, 5-cyclopropyl-N-methyl-2-(5-methylpyridin-2-yl)-6-{(methylsulfonyl)[2-(oxetan-3-yl)ethyl]amino}-2H-indazole-3-carboxamide] | 500 to 990 | – |
| – | – | CNC(=O)c1c2cc(C3CC3)c(N(CCC3CNC3)S(C)(=O)=O)cc2nn1-c1ccc(Cl)cc1 [Compound 6, 6-{[2-(Azetidin-3-yl)ethyl](methylsulfonyl)amino}-2-(4-chlorophenyl)-5-cyclopropyl-N-methyl-2H-indazole-3-carboxamide] | 100 to 490 | 1000 to 10000 |
| – | – | CNC(=O)c1c2cc(C3CC3)c(N(CCC3CN(C)C3)S(C)(=O)=O)cc2nn1-c1ccc(Cl)cc1 [Compound 7, 2-(4-chlorophenyl)-5-cyclopropyl-N-methyl-6-{[2-(1-methylazetidin-3-yl)ethyl](methylsulfonyl)amino}-2H-indazole-3-carboxamide] | 100 to 490 | 100 to 490 |
| – | – | CNC(=O)c1c2cc(C3CC3)c(N(CCC3COC3)S(C)(=O)=O)cc2nn1-c1ccc(Cl)cc1 [Compound 10, 2-(4-chlorophenyl)-5-cyclopropyl-N-methyl-6-{(methylsulfonyl)[2-(oxetan-3-yl)ethyl]amino}-2H-indazole-3-carboxamide] | < 100 | < 100 |
| – | – | CNC(=O)c1c2cc(C3CC3)c(N(CCC3(C)COC3)S(C)(=O)=O)cc2nn1-c1ccc(Cl)cc1 [Compound 11, 2-(4-chlorophenyl)-5-cyclopropyl-N-methyl-6-{[2-(3-methyloxetan-3-yl)ethyl](methylsulfonyl)amino}-2H-indazole-3-carboxamide] | < 100 | < 100 |
| – | – | CNC(=O)c1c2cc(C3CC3)c(N(CC3(C)COC3)S(C)(=O)=O)cc2nn1-c1ccc(Cl)cc1 [Compound 12, 2-(4-chlorophenyl)-5-cyclopropyl-N-methyl-6-{[(3-methyloxetan-3-yl)methyl](methylsulfonyl)amino}-2H-indazole-3-carboxamide] | 1000 to 10000 | 1000 to 10000 |
| – | – | CNC(=O)c1c2cc(C3CC3)c(N(CCC3CCO3)S(C)(=O)=O)cc2nn1-c1ccc(Cl)cc1 (centres unmarked) [Compound 13, 2-(4-chlorophenyl)-5-cyclopropyl-N-methyl-6-{(methylsulfonyl)[2-(oxetan-2-yl)ethyl]amino}-2H-indazole-3-carboxamide] | 100 to 490 | < 100 |
| – | – | CNC(=O)c1c2cc(C3CC3)c(N(CC(C)C3COC3)S(C)(=O)=O)cc2nn1-c1ccc(Cl)cc1 (centres unmarked) [Compound 15, 2-(4-chlorophenyl)-5-cyclopropyl-N-methyl-6-{(methylsulfonyl) [2-(oxetan-3-yl)propyl]amino}-2H-indazole-3-carboxamide] | 100 to 490 | 500 to 990 |
| – | – | CNC(=O)c1c2cc(C3CC3)c(N(CCC3(C(C)C)COC3)S(C)(=O)=O)cc2nn1-c1ccc(Cl)cc1 [Compound 16, 2-(4-chlorophenyl)-5-cyclopropyl-N-methyl-6-[(methylsulfonyl) {2-[3-(propan-2-yl)oxetan-3-yl]ethyl}amino]-2H-indazole-3-carboxamide] | < 100 | < 100 |
| – | – | CNC(=O)c1c2cc(C3CC3)c(N(CCC3CN(C(=O)OC(C)(C)C)C3)S(C)(=O)=O)cc2nn1-c1ccc(Cl)cc1 [Compound 19, tert-butyl 3-(2-{[2-(4-chlorophenyl)-5-cyclopropyl-3-(methylcarbamoyl)-2H-indazol-6-yl](methylsulfonyl)amino}ethyl)azetidine-1-carboxylate] | 100 to 490 | < 100 |
| – | 12.5 to 25 (≈ 25.1 to 50.2 µM) | CNC(=O)c1c2cc(C3CC3)c(N(CCC3COC3C)S(C)(=O)=O)cc2nn1-c1ccc(C)cn1 (centres unmarked) [Compound 20, 5-cyclopropyl-N-methyl-6-{[2-(2-methyloxetan-3-yl)ethyl](methylsulfonyl)amino}-2-(5-methylpyridin-2-yl)-2H-indazole-3-carboxamide] | – | – |
| – | > 100 | CNC(=O)c1c2cc(C3CC3)c(N(CCC3(C)COC3)S(C)(=O)=O)cc2nn1-c1ccc(C)cn1 [Compound 21, 5-cyclopropyl-N-methyl-6-{[2-(3-methyloxetan-3-yl)ethyl](methylsulfonyl)amino}-2-(5-methylpyridin-2-yl)-2H-indazole-3-carboxamide] | – | – |
| – | – | CNC(=O)c1c2cc(C3CC3)c(N(CCN3CC(O)C3)S(C)(=O)=O)cc2nn1-c1ccc(Cl)cc1 [Compound 22, 2-(4-chlorophenyl)-5-cyclopropyl-6-[2-(3-hydroxyazetidin-1-yl)ethyl-methylsulfonyl-amino]-N-methyl-indazole-3-carboxamide] | 500 to 990 | 100 to 490 |
| – | 12.5 to 25 (≈ 21.5 to 42.9 µM) | CNC(=O)c1c2cc(C3CC3)c(N(CCC3CN(C(=O)OC(C)(C)C)C3)S(C)(=O)=O)cc2nn1-c1ccc(C)cn1 [Compound 24, tert-butyl 3-[2-[[5-cyclopropyl-3-(methylcarbamoyl)-2-(5-methyl-2-pyridyl)indazol-6-yl]-methylsulfonyl-amino]ethyl]azetidine-1-carboxylate] | – | – |
| – | – | CNC(=O)c1c2cc(C3CC3)c(N(CCC3(OC)CN(C(=O)OC(C)(C)C)C3)S(C)(=O)=O)cc2nn1-c1ccc(Cl)cc1 [Compound 27, tert-butyl 3-[2-[[2-(4-chlorophenyl)-5-cyclopropyl-3-(methylcarbamoyl)indazol-6-yl]-methylsulfonyl-amino]ethyl]-3-methoxy-azetidine-1-carboxylate] | 500 to 990 | < 100 |
| – | 50 to 100 (≈ 97.3 to 195 µM) | CNC(=O)c1c2cc(C3CC3)c(N(CCC3(OC)COC3)S(C)(=O)=O)cc2nn1-c1ccc(C)cn1 [Compound 28, 5-cyclopropyl-6-[2-(3-methoxyoxetan-3-yl)ethyl-methylsulfonyl-amino]-N-methyl-2-(5-methyl-2-pyridyl)indazole-3-carboxamide] | – | – |
| – | – | CNC(=O)c1c2cc(C3CC3)c(N(CCC3COC3C)S(C)(=O)=O)cc2nn1-c1ccc(Cl)cc1 (centres unmarked) [Compound 31, 2-(4-chlorophenyl)-5-cyclopropyl-N-methyl-6-[2-[-2-methyloxetan-3-yl]ethyl-methylsulfonyl-amino]indazole-3-carboxamide] | 100 to 490 | < 100 |
| < 1.6 | – | CNC(=O)c1c2cc(C3CC3)c(N(CCC3CCOCC3)S(C)(=O)=O)cc2nn1-c1ccc(Cl)cc1 [D, reference compound] | – | – |

| Structure (SMILES) | solubility at 30 min ([1]; read-out: Solubility at pH 6.5) [µg/mL] | solubility at 30 min [1, 4] [µg/mL] | IC50 [2] [nM] | EC50 [3] [nM] |
| --- | --- | --- | --- | --- |
| CNC(=O)c1c2cc(C3CC3)c(N(CCC3COC3C)S(C)(=O)=O)cc2nn1-c1ccc(Cl)cc1 (centres unmarked) [Compound 9, 2-(4-Chlorophenyl)-5-cyclopropyl-N-methyl-6-[{2[-2-methyloxetan-3-yl]ethyl}(methylsulfonyl)amino]-2H-indazole-3-carboxamide] | – | 25 to 50 (≈ 48.4 to 96.7 µM) | – | – |
| CNC(=O)c1c2cc(C3CC3)c(N(CCC3(CNC(=O)OC(C)(C)C)COC3)S(C)(=O)=O)cc2nn1-c1ccc(C)cn1 [Compound 35, tert-butyl N-[[3-[2-[[5-cyclopropyl-3-(methylcarbamoyl)-2-(5-methyl-2-pyridyl)indazol-6-yl]-methylsulfonyl-amino]ethyl]oxetan-3-yl]methyl]carbamate] | – | 12.5 to 25 (≈ 20.4 to 40.8 µM) | – | 1000 to 10000 |
